The conditions of series [1]: cited from earlier work.
The conditions of series [2]: at 3 hours; 0.5 mg/mL.
Experimental: Approximately 1 mL of bupivacaine solution (0.5 mg/mL in water) or bupivacaine nanoemulsion (0.5 mg/mL in nS100) were added to the donor chamber. At each time point, 70 μL was removed from the receiver chamber and replaced with an equivalent volume of fresh PBS to maintain constant volume. The aliquot from each time point was analyzed by HPLC to determine amount of drug permeating through the membrane over time. The HPLC system consisted of an LC-20AD pump, SIL-20AC HT autosampler, CTO-20A column oven, and SPD-20A UV/vis detector (Shimadzu Scientific Instruments, Inc.). HPLC conditions were: 30 μL injection volume, isocratic elution of mobile phase consisting of 75% methanol and 25% 10 mM sodium phosphate buffer (pH 7.8), flow rate of 1.000 mL/min, column temperature of 40° C., and detection at 263 nm.
For series [3] the following is noted: over 7 hours; 1 mg/mL, pH 5-6.
Experimental: At each time point, 80 μL was removed from the receiver chamber and replaced with an equivalent volume of fresh PBS to maintain constant volume. The aliquot from each time point was analyzed by HPLC to determine amount of drug permeating through the membrane over time. The HPLC system consisted of an LC-20AD pump, SIL-20AC HT autosampler, CTO-20A column oven, and SPD-20A UV/vis detector (Shimadzu Scientific Instruments, Inc.). HPLC conditions were: 30 μL injection volume, isocratic elution of mobile phase consisting of 50% methanol and 50% phosphoric acid (0.1%), flow rate of 1.000 mL/min, column temperature of 40° C., and detection at 275 nm.
The conditions of series [4]: over 24 hours; 10 mg/mL.
Experimental: Sesame EMO nanoemulsion (nS50) was prepared from a combination of sesame EMO and FFA oil. Sesame EMO (0.852 g) and sesame FFA (0.648 g) were weighed into a 50 mL metal beaker and heated to 60° C. A coarse emulsion was prepared by adding 13.5 mL water (pre-heated to 60° C.) to the oil. The mixture was subjected to high-sheer homogenizer for 30 seconds, resulting in a milky coarse emulsion. The coarse emulsion was then transferred to QSonica Q700CA sonicator with ½ inch probe. The emulsion was processed for 2 cycles (5 minutes sonication/2 minutes cooling) at 90% power. […] At each time point, 70 μL was removed from the receiver chamber and replaced with an equivalent volume of fresh PBS to maintain constant volume. The aliquot from each time point was analyzed by HPLC to determine amount of drug permeating through the membrane over time. The HPLC system consisted of an LC-20AD pump, SIL-20AC HT autosampler, CTO-20A column oven, and SPD-20A UV/vis detector (Shimadzu Scientific Instruments, Inc.). HPLC conditions were: 30 μL injection volume, isocratic elution of mobile phase consisting of 60% methanol and 40% phosphoric acid (0.1%), flow rate of 1.000 mL/min, column temperature of 40° C., and detection at 210 nm.
The conditions of series [5]: 10 mg/mL.
Experimental: Sesame EMO nanoemulsion (nS50) was prepared from a combination of sesame EMO and FFA oil. Sesame EMO (0.852 g) and sesame FFA (0.648 g) were weighed into a 50 mL metal beaker and heated to 60° C. A coarse emulsion was prepared by adding 13.5 mL water (pre-heated to 60° C.) to the oil. The mixture was subjected to high-sheer homogenizer for 30 seconds, resulting in a milky coarse emulsion. The coarse emulsion was then transferred to QSonica Q700CA sonicator with ½ inch probe. The emulsion was processed for 2 cycles (5 minutes sonication/2 minutes cooling) at 90% power. Approximately 1 mL of trifluoroacetyl tripeptide-2 (Cayman Chemical Company) solution (10 mg/mL in 10% DMSO in water) or trifluoroacetyl tripeptide-2 nanoemulsion (10 mg/mL in 10% DMSO in nS50) were added to the donor chamber. At each time point, 70 μL was removed from the receiver chamber and replaced with an equivalent volume of fresh PBS to maintain constant volume. The aliquot from each time point was analyzed by HPLC to determine amount of drug permeating through the membrane over time.

Read-outs that look alike come from different tables or passages of the source.

The values that follow come from US20240050422A1, “DRUG DELIVERY VIA MONOACYLGLYCEROL AND FREE FATTY ACID-BASED COMPOSITIONS” (GLYCOSBIO, INC., priority 2021, published 2024).

`C=C(C)[C@@H]1CCC(C)=C[C@H]1c1c(O)cc(CCCCC)cc1O` [CBD, cannabidiol]: in series [1], the solubility in water entry was “essentially insoluble in water”.

As for `CCCCN1CCCCC1C(=O)Nc1c(C)cccc1C` (stereo not drawn) [free drug control (bupivacaine), bupivacaine], the bupivacaine permeation result in series [2] was “undetectable permeation”. In the case of `O=C(O)c1ccccc1O` [free drug control (salicylic acid), salicylic acid], the salicylic acid permeation entry in series [3] was “no salicylic acid permeation”. “hexapeptide-11 [free peptide control (hexapeptide-11)]”: the hexapeptide-11 permeation result in series [4] is recorded as “no peptide permeation”. For trifluoroacetyl tripeptide-2, the “trifluoroacetyl tripeptide-2 permeation” value in series [5] (after 24 hours) is 1.1 ug/cm^2; in series [5] (at 6 hours), “no peptide permeation”.
